Measurements as given in ChEMBL document CHEMBL4622970, “Design, Synthesis, and Evaluation of New Quinazolinone Derivatives that Inhibit Bloom Syndrome Protein (BLM) Helicase, Trigger DNA Damage at the Telomere Region, and Synergize with PARP Inhibitors” (J Med Chem, 2020).
Calls of active or inactive are those of the source. The rule behind the calls is not given here.

What was measured:
[1] = target: T1, RecQ-like DNA helicase BLM (Homo sapiens, UniProt P54132); experiment: Inhibition of BLM in human HCT116 cells assessed as induction of telomere end loss at 4 uM by fluorescent in situ hybridization; type: cell-based; conditions: HCT-116
[2] = target: T1, RecQ-like DNA helicase BLM; experiment: Inhibition of BLM in human HCT116 cells assessed as potentiation of cisplatin-induced cytotoxicity by measuring combination index at 1 to 2 uM measured after 48 hrs by MTT assay; type: cell-based; conditions: HCT-116
[3] = target: T1, RecQ-like DNA helicase BLM; experiment: Inhibition of BLM in human HCT116 cells assessed as potentiation of BIBR1532-induced cytotoxicity by measuring combination index at 1 to 2 uM measured after 48 hrs by MTT assay; type: cell-based; conditions: HCT-116
[4] = target: T1, RecQ-like DNA helicase BLM; experiment: Inhibition of BLM in human HCT116 cells assessed as down regulation of HRR level at 0.5 uM measured after 24 hrs by luciferase reporter gene assay; type: cell-based; conditions: HCT-116
[5] = target: T1, RecQ-like DNA helicase BLM; experiment: Binding affinity to His-tagged BLM (642 to 1296 residues) (unknown origin) expressed in Escherichia coli BL21 (DE3) cells assessed as inhibition of protein interaction with 5'-biotin-labeled forked DNA measured after 1 hr by ELISA
[6] = target: T1, RecQ-like DNA helicase BLM; experiment: Inhibition of BLM in human HCT116 cells assessed as potentiation of niraparib-induced cytotoxicity at 1 to 2 uM measured after 48 hrs by MTT assay relative to niraparib alone; type: cell-based; conditions: HCT-116
[7] = tested on: HCT-116; experiment: Induction of apoptosis in human HCT116 cells assessed as upregulation of cleaved caspase-3 expression up to 4 uM measured after 48 hrs by Western blot analysis; type: functional, cell-based
[8] = target: RecQ-like DNA helicase BLM (Homo sapiens, UniProt P54132, H996A); experiment: Binding affinity to His-tagged BLM H996A mutant (unknown origin) expressed in Escherichia coli BL21 (DE3) cells by isothermal calorimetric titration assay
[9] = target: T1, RecQ-like DNA helicase BLM; experiment: Inhibition of His-tagged BLM (642 to 1296 residues) (unknown origin) expressed in Escherichia coli BL21 (DE3) cells assessed as reduction in DNA unwinding activity using 5'-biotin-labeled forked DNA as substrate preincubated for 1 hr followed by substrate addition and measured after 1 hr by electrophoretic mobility shift assay
[10] = target: T1, RecQ-like DNA helicase BLM; experiment: Binding affinity to BLM in human HCT116 cells cotransfected with DSB model and I-SceI plasmid assessed as reduction in recruitment of protein to DNA region distant from DSB site at 2 uM measured after 24 hrs by chromatin immunoprecipitation assay; type: cell-based; conditions: HCT-116
[11] = target: T1, RecQ-like DNA helicase BLM; experiment: Binding affinity to BLM in human HCT116 cells cotransfected with DSB model and I-SceI plasmid assessed as reduction in recruitment of protein to DSB site in DNA at 2 uM measured after 24 hrs by chromatin immunoprecipitation assay; type: cell-based; conditions: HCT-116
[12] = tested on: HCT-116; experiment: Induction of apoptosis in human HCT116 cells measured after 48 hrs by Annexin V-FITC/propidium iodide staining based flow cytometry; type: functional, cell-based
[13] = target: T1, RecQ-like DNA helicase BLM; experiment: Inhibition of BLM in human HCT116 cells assessed as upregulation of CHK1 phosphorylation by Western blot analysis; type: cell-based; conditions: HCT-116
[14] = tested on: HCT-116; experiment: Cytotoxicity against human HCT116 cells by MTT assay; type: functional, cell-based
[15] = target: T1, RecQ-like DNA helicase BLM; experiment: Inhibition of BLM in human HCT116 cells assessed as increase in gamma-H2AX-TRF2 foci colocalization mediated telomere dysfunction-induced foci formation at 1 to 4 uM measured after 24 hrs by DAPI staining based immunofluorescence assay relative to total gamma-H2AX foci; type: cell-based; conditions: HCT-116
[16] = target: T1, RecQ-like DNA helicase BLM; experiment: Inhibition of BLM in human HCT116 cells assessed as increase in gamma-H2AX-TRF2 foci colocalization mediated telomere dysfunction-induced foci formation at 1 uM measured after 24 hrs in presence of […] inhibitor niraparib by DAPI staining based immunofluorescence assay; type: cell-based; conditions: HCT-116
[17] = tested on: HCT-116; experiment: Antiproliferative activity against human HCT116 cells harboring siBLM assessed as inhibition of cell proliferation at 1 to 2 uM by real-time cellular analysis; type: functional, cell-based
[18] = target: T1, RecQ-like DNA helicase BLM; experiment: Inhibition of BLM in human HCT116 cells assessed as upregulation of ATR phosphorylation up to 4 uM by Western blot analysis; type: cell-based; conditions: HCT-116
[19] = target: T1, RecQ-like DNA helicase BLM; experiment: Inhibition of BLM in human HCT116 cells assessed as increase in gamma-H2AX level at 2 uM measured after 24 hrs by Western blot analysis; type: cell-based; conditions: HCT-116
[20] = tested on: HCT-116; experiment: Antiproliferative activity against wild-type human HCT116 cells assessed as inhibition of cell proliferation by real-time cellular analysis; type: functional, cell-based
[21] = target: T1, RecQ-like DNA helicase BLM; experiment: Inhibition of BLM in human HCT116 cells assessed as potentiation of niraparib-induced cytotoxicity by measuring combination index at 1 to 2 uM measured after 48 hrs by MTT assay; type: cell-based; conditions: HCT-116
[22] = target: RecQ-like DNA helicase BLM (Homo sapiens, UniProt P54132, I1168A); experiment: Binding affinity to His-tagged BLM I1168A mutant (unknown origin) expressed in Escherichia coli BL21 (DE3) cells by isothermal calorimetric titration assay
[23] = target: T1, RecQ-like DNA helicase BLM; experiment: Inhibition of BLM in human HCT116 cells assessed as increase in gamma-H2AX foci at 1 to 4 uM measured after 24 hrs by DAPI staining based immunofluorescence assay; type: cell-based; conditions: HCT-116
[24] = target: T1, RecQ-like DNA helicase BLM; experiment: Binding affinity to wild-type His-tagged BLM (642 to 1296 residues) (unknown origin) expressed in Escherichia coli BL21 (DE3) cells by isothermal calorimetric titration assay
[25] = target: T1, RecQ-like DNA helicase BLM; experiment: Inhibition of BLM in human HCT116 cells assessed as upregulation of ATM phosphorylation up to 4 uM by Western blot analysis; type: cell-based; conditions: HCT-116
[26] = tested on: HCT-116; experiment: Induction of apoptosis in human HCT116 cells assessed as apoptotic cell population at 4 uM measured after 48 hrs by Annexin V-FITC/propidium iodide staining based flow cytometry (reference value: 17.4%); type: functional
[27] = tested on: HCT-116; experiment: Induction of apoptosis in human HCT116 cells assessed as upregulation of cleaved caspase-7 expression up to 4 uM measured after 48 hrs by Western blot analysis; type: functional, cell-based
[28] = target: T1, RecQ-like DNA helicase BLM; experiment: Inhibition of BLM in human HCT116 cells assessed as potentiation of olaparib-induced cytotoxicity by measuring combination index at 1 to 2 uM measured after 48 hrs by MTT assay; type: cell-based; conditions: HCT-116
[29] = target: T1, RecQ-like DNA helicase BLM; experiment: Inhibition of BLM in human HCT116 cells assessed as upregulation of CHK2 phosphorylation by Western blot analysis; type: cell-based; conditions: HCT-116
[30] = target: T1, RecQ-like DNA helicase BLM; experiment: Inhibition of BLM in human HCT116 cells assessed as potentiation of olaparib-induced cytotoxicity at 1 to 2 uM measured after 48 hrs by MTT assay relative to olaparib alone; type: cell-based; conditions: HCT-116
[31] = tested on: HCT-116; experiment: Induction of apoptosis in human HCT116 cells assessed as upregulation of cleaved PARP expression up to 4 uM measured after 48 hrs by Western blot analysis; type: functional, cell-based
[32] = target: T1, RecQ-like DNA helicase BLM; experiment: Inhibition of BLM in human HCT116 cells assessed as increase in gamma-H2AX-TRF2 foci colocalization mediated telomere dysfunction-induced foci formation measured after 24 hrs by DAPI staining based immunofluorescence assay; type: cell-based; conditions: HCT-116

T1 sequence (P54132 whole entry): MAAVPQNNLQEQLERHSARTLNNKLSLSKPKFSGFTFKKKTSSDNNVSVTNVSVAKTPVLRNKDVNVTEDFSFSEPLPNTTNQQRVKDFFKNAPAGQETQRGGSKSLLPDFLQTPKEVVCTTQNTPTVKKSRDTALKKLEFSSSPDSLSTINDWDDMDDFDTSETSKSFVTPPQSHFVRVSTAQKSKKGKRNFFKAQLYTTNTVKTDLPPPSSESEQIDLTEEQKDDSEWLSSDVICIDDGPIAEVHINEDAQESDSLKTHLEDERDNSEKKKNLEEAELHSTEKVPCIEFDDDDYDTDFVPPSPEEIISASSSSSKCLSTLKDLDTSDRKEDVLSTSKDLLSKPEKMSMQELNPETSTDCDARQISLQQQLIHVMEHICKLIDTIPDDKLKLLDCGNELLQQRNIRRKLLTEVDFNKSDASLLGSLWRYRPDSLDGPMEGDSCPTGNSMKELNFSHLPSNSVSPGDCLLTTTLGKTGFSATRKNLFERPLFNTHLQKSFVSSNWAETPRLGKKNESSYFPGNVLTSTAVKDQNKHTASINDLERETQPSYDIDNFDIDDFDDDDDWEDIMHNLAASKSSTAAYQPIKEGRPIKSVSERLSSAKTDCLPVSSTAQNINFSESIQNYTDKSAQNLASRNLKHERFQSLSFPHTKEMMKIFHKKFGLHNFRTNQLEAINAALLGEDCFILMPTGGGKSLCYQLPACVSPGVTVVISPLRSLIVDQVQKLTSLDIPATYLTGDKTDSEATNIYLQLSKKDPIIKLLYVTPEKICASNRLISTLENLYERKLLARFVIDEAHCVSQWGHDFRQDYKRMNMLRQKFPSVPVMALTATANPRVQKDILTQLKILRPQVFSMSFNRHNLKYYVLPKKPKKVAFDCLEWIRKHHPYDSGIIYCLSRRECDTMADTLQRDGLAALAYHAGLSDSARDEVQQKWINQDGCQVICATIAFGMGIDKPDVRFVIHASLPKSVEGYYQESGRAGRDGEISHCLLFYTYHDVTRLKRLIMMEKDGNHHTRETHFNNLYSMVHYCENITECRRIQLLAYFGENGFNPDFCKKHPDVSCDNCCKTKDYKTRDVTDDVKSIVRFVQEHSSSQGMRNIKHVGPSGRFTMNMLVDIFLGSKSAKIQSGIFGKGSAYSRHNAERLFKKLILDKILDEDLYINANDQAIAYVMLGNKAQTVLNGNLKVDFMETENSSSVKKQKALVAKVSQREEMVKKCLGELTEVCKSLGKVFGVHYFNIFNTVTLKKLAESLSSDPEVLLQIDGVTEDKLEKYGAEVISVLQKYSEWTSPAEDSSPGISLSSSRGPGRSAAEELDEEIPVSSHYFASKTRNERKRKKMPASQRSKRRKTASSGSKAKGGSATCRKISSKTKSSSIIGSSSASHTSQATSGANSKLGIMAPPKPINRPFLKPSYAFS
Sequence of RecQ-like DNA helicase BLM (Homo sapiens, UniProt P54132, H996A) (P54132 whole entry H996A, the tested form may be a part): as the sequence (P54132 whole entry) above, with H996A counted along it
Sequence of RecQ-like DNA helicase BLM (Homo sapiens, UniProt P54132, I1168A) (P54132 whole entry I1168A): as the sequence (P54132 whole entry) above, with I1168A counted along it

inhibition [1]: Active | inhibition [4]: Active | IC50 [5]: 8.7 µM | Kd [8]: 1.4 µM | IC50 [9]: 0.8 µM | Activity [10]: Active | Activity [11]: Active | inhibition [13]: Dose-dependent effect | inhibition [15]: > 70% | inhibition [16]: Active | inhibition [18]: Active | inhibition [19]: Active | Kd [22]: 6.54 µM | inhibition [23]: Active | Kd [24]: 0.76 µM | inhibition [25]: Active | inhibition [29]: Dose-dependent effect | inhibition [32]: Dose-dependent effect
SMILES: CCN(CC)CCCNc1cc2nc(/C=C/c3ccc(C(C)C)cc3)n(CCCl)c(=O)c2cc1F
CI [2]: 0.6 to 0.8 | CI [3]: 0.5 to 0.8 | fold change (FC) [6]: 2 to 4 | Activity [7]: Active | Activity [12]: Dose-dependent effect | Activity [14]: Active | inhibition [17]: inactive | inhibition [20]: Dose-dependent effect | CI [21]: 0.4 to 0.8 | Activity [26]: 76% | Activity [27]: Active | CI [28]: 0.4 to 0.8 | fold change (FC) [30]: 2 to 4 | Activity [31]: Active
